“Also recorded” adds a separate entry of the source.
Target: skeletal muscle Nav1.4 sodium channels (Homo sapiens, UniProt P35499)
Test: Dynamic clamp whole cell assay of action potential firing at HEK cells expressing Nav1.4 sodium channels
Format: cell-based
Method: Twenty-four hours prior to experimentation, cells were dissociated using Versene (EDTA) and plated at 10-12% confluency onto coverslips. The following day the coverslips were placed into the recording chamber and held at 22-25° C. for the duration of the experiments.
Borosilicate glass pipettes (WPI) were used for the whole cell assay. These pipettes were filled with an intracellular solution containing (mM): 10 NaF, 110 CsF, 20 TEA.Cl, 2 ethylene glycol tetraacetic acid and 10 HEPES, with pH adjusted to 7.4 using CsOH and osmolarity adjusted to 310 mosmol/L with sucrose.
The bath solution contained in (mM): 141 NaCl, 4 KCl, 1.0 MgCl2, 1.8 CaCl2, 10 HEPES buffer, and 4 tetraethylammonium (TEA).Cl, with pH adjusted to 7.4 with NaOH and osmolarity adjusted to 310 mosmol/L with sucrose. Bath temperature was controlled using a Warner Instruments (Hamden, Conn.) controller (TC-344B) with inline solution and bath heating.
Electrophysiological recordings were made 10 minutes after establishing whole cell recording. Recordings were made on an EPC-9 patch clamp amplifier (Heka Instruments, Lambrecht, Germany) filtered at 14.4 kHz with >80% series resistance compensation and sampled at 50 kHz. The current monitor output from the EPC-9 was fed into the analogue input channel of a data acquisition card.
The model runs in polling mode using the ode5 fixed time step solver with a step size of 50 μS.
The dynamic clamp system was configured to account for leak conductance, and to also simulate the function of potassium channels, which were not present in the HEK cell.
Following attainment of a whole cell clamp in the HEK cell, a period of 10 minutes was allowed for diffusion of the pipette solution into the intracellular volume of the cell. During this period cells were held at −85 mV.
Control was transferred to the Simulink system and a range of current injections were trialled to achieve a steady state action potential firing of 50-100 Hz (FIG. 8). This firing was stable and continued as long as a stimulating current injection was maintained. […]

Sequence of skeletal muscle Nav1.4 sodium channels (P35499 whole entry): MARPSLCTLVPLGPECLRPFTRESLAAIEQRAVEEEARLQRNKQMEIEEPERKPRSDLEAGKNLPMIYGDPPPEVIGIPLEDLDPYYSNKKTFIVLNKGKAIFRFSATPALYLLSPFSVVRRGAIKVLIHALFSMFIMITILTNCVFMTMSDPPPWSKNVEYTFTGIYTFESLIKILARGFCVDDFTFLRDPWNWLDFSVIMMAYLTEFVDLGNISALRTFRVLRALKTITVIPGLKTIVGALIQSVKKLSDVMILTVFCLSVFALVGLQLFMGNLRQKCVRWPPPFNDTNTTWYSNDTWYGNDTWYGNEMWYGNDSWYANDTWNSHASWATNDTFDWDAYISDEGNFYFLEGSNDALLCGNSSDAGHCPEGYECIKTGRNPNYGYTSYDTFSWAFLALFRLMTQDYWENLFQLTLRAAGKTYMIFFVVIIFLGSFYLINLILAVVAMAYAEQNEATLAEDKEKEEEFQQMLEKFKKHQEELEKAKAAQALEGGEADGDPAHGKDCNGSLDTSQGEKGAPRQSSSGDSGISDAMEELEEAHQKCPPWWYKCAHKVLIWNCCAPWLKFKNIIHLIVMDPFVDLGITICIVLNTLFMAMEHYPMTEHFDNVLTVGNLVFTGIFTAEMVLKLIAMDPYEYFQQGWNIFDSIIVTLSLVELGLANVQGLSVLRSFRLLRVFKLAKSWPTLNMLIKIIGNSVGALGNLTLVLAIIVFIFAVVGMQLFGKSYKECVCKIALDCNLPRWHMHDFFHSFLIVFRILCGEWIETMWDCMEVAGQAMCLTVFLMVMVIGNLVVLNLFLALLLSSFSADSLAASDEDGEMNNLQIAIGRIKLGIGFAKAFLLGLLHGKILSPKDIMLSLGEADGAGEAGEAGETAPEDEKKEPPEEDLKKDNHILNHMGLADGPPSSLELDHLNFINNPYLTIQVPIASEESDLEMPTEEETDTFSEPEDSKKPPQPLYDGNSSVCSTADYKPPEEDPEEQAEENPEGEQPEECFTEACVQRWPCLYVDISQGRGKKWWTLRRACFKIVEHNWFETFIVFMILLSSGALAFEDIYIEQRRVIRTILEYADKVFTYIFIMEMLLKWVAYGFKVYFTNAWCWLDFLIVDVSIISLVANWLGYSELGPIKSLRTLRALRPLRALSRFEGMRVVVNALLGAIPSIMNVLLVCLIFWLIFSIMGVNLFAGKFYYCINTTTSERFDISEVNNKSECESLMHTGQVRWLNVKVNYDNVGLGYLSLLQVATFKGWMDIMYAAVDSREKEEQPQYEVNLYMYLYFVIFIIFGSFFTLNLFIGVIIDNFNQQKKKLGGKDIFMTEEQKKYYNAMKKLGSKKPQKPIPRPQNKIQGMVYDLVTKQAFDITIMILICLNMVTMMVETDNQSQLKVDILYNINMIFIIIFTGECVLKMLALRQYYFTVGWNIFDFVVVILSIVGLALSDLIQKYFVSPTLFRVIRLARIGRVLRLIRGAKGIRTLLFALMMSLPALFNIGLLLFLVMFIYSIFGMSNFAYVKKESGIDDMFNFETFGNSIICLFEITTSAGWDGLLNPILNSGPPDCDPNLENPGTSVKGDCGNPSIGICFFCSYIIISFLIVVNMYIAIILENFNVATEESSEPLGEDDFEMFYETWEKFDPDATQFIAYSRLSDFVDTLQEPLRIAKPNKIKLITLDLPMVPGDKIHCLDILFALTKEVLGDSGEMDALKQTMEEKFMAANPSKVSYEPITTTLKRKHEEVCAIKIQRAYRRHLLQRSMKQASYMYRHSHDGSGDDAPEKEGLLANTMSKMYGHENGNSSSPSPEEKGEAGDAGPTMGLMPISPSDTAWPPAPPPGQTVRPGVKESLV

**Q.** With `NC(=O)N1c2ccccc2C=Cc2ccccc21` [carbamazepine] as the compound, how does the “action potential firing rate” value (50 μM in bath solution perfused onto HEK cells expressing Nav1.4, steady state firing of 50-100 Hz before compound) read?
**A.** Its value is “decreased the action potential firing rate; also recorded: decrease in action potential firing rate”.

**Q.** And the “number of action potentials elicited by a stimulating current step” value (continued presence of 50 μM, HEK cells expressing Nav1.4, no further firing would occur)?
**A.** Its value is 2-3.

— patent US20110294155A1, “MODULATION OF AN ION CHANNEL OR RECEPTOR” (Howard Florey Institute, priority 2008, published 2011)
